According to patent US20120264735A1 (priority 2009, published 2012):

Molecular target: T1, c-Met kinase (recombinant c-Met) (Homo sapiens, UniProt P08581)
T1 construct: 0.27 nM recombinant c-Met
Assay: In vitro kinase assay I (homogeneous time-resolved fluorescence tyrosine kinase assay)
Format: biochemical
Method in brief: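 Biotinylated peptide (0.5 μM) phosphorylated by 0.2 nM recombinant c-Met with 50 μM MgATP, 60 min at room temperature, pH 7.4, 5% DMSO. EDTA stop; HTRF read with Eu-anti-phosphotyrosine antibody and streptavidin-APC. IC50 from 4-parameter logistic fit.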

T1 sequence (P08581 25-1390): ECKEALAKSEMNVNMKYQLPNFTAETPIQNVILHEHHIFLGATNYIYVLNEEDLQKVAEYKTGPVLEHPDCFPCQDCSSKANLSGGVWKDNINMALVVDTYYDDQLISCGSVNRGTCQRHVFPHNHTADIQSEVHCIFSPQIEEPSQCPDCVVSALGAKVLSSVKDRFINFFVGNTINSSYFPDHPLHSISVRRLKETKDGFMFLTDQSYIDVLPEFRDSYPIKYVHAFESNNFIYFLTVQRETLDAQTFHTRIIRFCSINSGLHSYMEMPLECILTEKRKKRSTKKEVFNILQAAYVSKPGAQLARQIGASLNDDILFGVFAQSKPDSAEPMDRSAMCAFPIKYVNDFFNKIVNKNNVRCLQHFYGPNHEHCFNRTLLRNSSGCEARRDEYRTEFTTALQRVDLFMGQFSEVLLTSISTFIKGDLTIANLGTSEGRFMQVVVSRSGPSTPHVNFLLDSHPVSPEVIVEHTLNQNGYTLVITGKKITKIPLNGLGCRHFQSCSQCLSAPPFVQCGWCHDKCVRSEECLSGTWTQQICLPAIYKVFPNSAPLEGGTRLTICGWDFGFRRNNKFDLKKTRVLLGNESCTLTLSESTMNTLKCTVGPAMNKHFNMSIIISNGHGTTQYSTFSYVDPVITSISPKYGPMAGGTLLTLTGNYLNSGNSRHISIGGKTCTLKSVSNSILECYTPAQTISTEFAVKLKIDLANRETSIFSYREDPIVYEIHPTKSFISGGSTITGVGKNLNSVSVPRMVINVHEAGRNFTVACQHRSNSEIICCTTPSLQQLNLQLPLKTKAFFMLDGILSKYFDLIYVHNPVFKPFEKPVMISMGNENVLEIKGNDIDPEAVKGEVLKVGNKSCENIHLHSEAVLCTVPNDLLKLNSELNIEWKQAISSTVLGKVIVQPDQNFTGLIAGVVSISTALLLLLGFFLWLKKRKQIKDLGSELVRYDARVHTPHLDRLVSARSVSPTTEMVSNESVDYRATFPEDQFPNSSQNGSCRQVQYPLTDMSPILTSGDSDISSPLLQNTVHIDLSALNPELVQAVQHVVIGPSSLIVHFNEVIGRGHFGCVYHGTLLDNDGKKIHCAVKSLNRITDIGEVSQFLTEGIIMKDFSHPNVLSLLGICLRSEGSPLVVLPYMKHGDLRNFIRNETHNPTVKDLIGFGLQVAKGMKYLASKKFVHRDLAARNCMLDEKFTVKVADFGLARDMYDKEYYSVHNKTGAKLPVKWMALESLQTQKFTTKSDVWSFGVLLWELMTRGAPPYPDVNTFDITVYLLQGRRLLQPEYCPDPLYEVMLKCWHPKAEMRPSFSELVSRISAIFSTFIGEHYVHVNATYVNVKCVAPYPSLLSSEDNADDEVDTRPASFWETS

IC50 [nM]	SMILES
< 100	Cn1cc(-n2ccc(=O)c(Cc3cccc(-c4ncc(C(=O)NCC5COCCO5)cn4)c3)n2)cn1 (racemic) [Example 474, rac-N-(1,4-Dioxan-2-ylmethyl)-2-(3-{[1-(1-methyl-1H-pyrazol-4-yl)-4-oxo-1,4-dihydropyridazin-3-yl]methyl}phenyl)pyrimidine-5-carboxamide]
< 100	CCOc1cnc(-c2cccc(Cc3nn(-c4cnn(C5CCNCC5)c4)ccc3=O)c2)nc1 [Example 664, 3-[3-(5-ethoxypyrimidin-2-yl)benzyl]-1-(1-piperidin-4-yl-1H-pyrazol-4-yl)pyridazin-4(1H)-one]
< 100	CCNc1cnc(-c2cccc(Cc3nn(-c4cnn(C)c4)ccc3=O)c2)nc1 [Example 452]
< 100	Cn1cc(-n2ccc(=O)c(Cc3cccc(-c4ncc(-n5cnnc5)cn4)c3)n2)cn1 [Example 473, 1-(1-Methyl-1H-pyrazol-4-yl)-3-{3-[5-(4H-1,2,4-triazol-4-yl)pyrimidin-2-yl]benzyl}pyridazin-4(1H)-one]
< 100	Cn1cc(-n2ccc(=O)c(Cc3cccc(-c4ncn(CCC5CCCO5)n4)c3)n2)cn1 (racemic) [Example 711, rac-1-(1-methyl-1H-pyrazol-4-yl)-3-(3-{1-[2-(tetrahydrofuran-2-yl)ethyl]-1H-1,2,4-triazol-3-yl}benzyl)pyridazin-4(1H)-one]
100 to 1000	Cn1cc(-n2ccc(=O)c(Cc3cccc(-c4noc(CC5CCOCC5)n4)c3)n2)cn1 [Example 746]
< 100	Cn1cc(-n2ccc(=O)c(Cc3cccc(NC(=O)OCCN4CCOCC4)c3)n2)cn1 [Example 531]
< 100	COC(C)(C)Cn1cnc(-c2cccc(Cc3nn(-c4cnn(C)c4)ccc3=O)c2)n1 [Example 719, 3-{3-[1-(2-methoxy-2-methylpropyl)-1H-1,2,4-triazol-3-yl]benzyl}-1-(1-methyl-1H-pyrazol-4-yl)pyridazin-4(1H)-one]
< 100	CCn1cc(-n2ccc(=O)c(Cc3cccc(-c4ncc(OCC5COCCO5)cn4)c3)n2)cn1 (racemic) [Example 311, rac-3-{3-[5-(1,4-dioxan-2-ylmethoxy)pyrimidin-2-yl]benzyl}-1-(1-ethyl-1H-pyrazol-4-yl)pyridazin-4(1H)-one]
100 to 1000	CCOCCn1cnc(-c2cccc(Cc3nn(-c4cnn(C)c4)ccc3=O)c2)n1 [Example 716, 3-{3-[1-(2-ethoxyethyl)-1H-1,2,4-triazol-3-yl]benzyl}-1-(1-methyl-1H-pyrazol-4-yl)pyridazin 4(1H)-one]
< 100	CCOc1cnc(-c2cccc(Cc3nn(-c4cnn(C)c4)ccc3=O)c2)nc1C [Example 177, 3-[3-(5-ethoxy-4-methylpyrimidin-2-yl)benzyl]-1-(1-methyl-1H-pyrazol-4-yl)pyridazin-4(1H)-one]
< 100	Cn1cc(-n2ccc(=O)c(Cc3cccc(-c4ncc(-c5cnn(C6COC6)c5)cn4)c3)n2)cn1 [Example 435, 1-(1-Methyl-1H-pyrazol-4-yl)-3-{3-[5-(1-oxetan-3-yl-1H-pyrazol-4-yl)pyrimidin-2-yl]benzyl}pyridazin-4(1H)-one]

Further lines, the molecule ahead of its results:

SMILES	IC50 [nM]
CCn1cc(-n2ccc(=O)c(C(C)c3cccc(-c4ncc(OCC5COCCO5)cn4)c3)n2)cn1 (single isomer, unassigned) [Example 299, 3-[(1R or S)-1-{3-[5-(1,4-dioxan-2-ylmethoxy)pyrimidin-2-yl]phenyl}ethyl]-1-(1-ethyl-1H-pyrazol-4-yl)pyriazin-4(1H)-one]	< 100
CC(C)COC(=O)Nc1cccc(Cc2nn(-c3cnn(CCCC(=O)N(C)C)c3)ccc2=O)c1 [Example 696, 2-Methylpropyl {3-[(1-{1-[4-(dimethylamino)-4-oxobutyl]-1H-pyrazol-4-yl}-4-oxo-1,4-dihydropyridazin-3-yl)methyl]phenyl}carbamate]	< 100
CCCOC(=O)Nc1cccc(Cc2nn(-c3cnn(CCOC)c3)ccc2=O)c1 [Example 107, propyl [3-({1-[1-(2-methoxyethyl)-1H-pyrazol-4-yl]-4-oxo-1,4-dihydropyridazin-3-yl}methyl)phenyl]carbamate]	100 to 1000
CCOc1cnc(-c2cccc(Cc3nn(-c4cn[nH]c4)ccc3=O)c2)nc1 [Example 195, 3-[3-(5-Ethoxypyrimidin-2-yl)benzyl]-1-(1H-pyrazol-4-yl)pyridazin-4(1H)-one]	< 100
CCOc1cnc(-c2cccc(Cc3nn(-c4cnn(CC)c4)ccc3=O)c2)nc1 [Example 150, 3-[3-(5-ethoxypyrimidin-2-yl)benzyl]-1-(1-ethyl-1H-pyrazol-4-yl)pyridazin-4(1H)-one]	< 100
O=c1ccn(-c2cc(F)c(F)c(F)c2)nc1Cc1ccc2ncnn2c1 [Example 10, 3-([1,2,4]triazolo[1,5-a]pyridin-6-ylmethyl)-1-(3,4,5-trifluorophenyl)pyridazin-4(1H)-one]	1000 to 3000
CC(C)(O)COc1cnc(-c2cccc(Cc3nn(-c4cc(Cl)cc(C#N)c4)ccc3=O)c2)nc1 [Example 371, 3-chloro-5-[3-{3-[5-(2-hydroxy-2-methylpropoxy)pyrimidin-2-yl]benzyl}-4-oxopyridazin-1(4H)-yl]benzonitrile]	< 100
CC(c1cccc(-c2ncn(C)n2)c1)c1nn(-c2cnn(C)c2)ccc1=O (single isomer, unassigned) [Example 683, 1-(1-methyl-1H-pyrazol-4-yl)-3-{(1R or S)-1-[3-(1-methyl-1H-1,2,4-triazol-3-yl)phenyl]ethyl} pyridazin-4(1H)-one]	< 100
Cn1cc(-n2ccc(=O)c(Cc3cccc(-c4ncc(C(=O)NCC(F)(F)F)cn4)c3)n2)cn1 [Example 481, 2-(3-{[1-(1-methyl-1H-pyrazol-4-yl)-4-oxo-1,4-dihydro-pyridazin-3-yl]methyl}phenyl)-N-(2,2,2-trifluoroethyl)pyrimidine-5-carboxamide]	< 100
N#Cc1cccc(-n2ccc(=O)c(Cc3cccc(NC(=O)OCCN4CCOCC4)c3)n2)c1 [Example 597, 2-morpholin-4-ylethyl (3-{[1-(3-cyanophenyl)-4-oxo-1,4-dihydropyridazin-3-yl]methyl}phenyl)carbamate]	< 100
COCCOC(=O)Nc1cccc(Cc2nn(-c3ccc(F)c(F)c3)ccc2=O)c1 [Example 506, 2-methoxyethyl (3-{[1-(3,4-difluorophenyl)-4-oxo-1,4-dihydropyridazin-3-yl]methyl}phenyl)carbamate]	< 100
Cn1cc(-n2ccc(=O)c(Cc3ccc4ncccc4c3)n2)cn1 [Example 55, 1-(1-methyl-1H-pyrazol-4-yl)-3-(quinolin-6-ylmethyl)pyridazin-4(1H)-one]	100 to 1000
CCc1cnc(-c2cccc(C(C)c3nn(-c4ccc(F)c(F)c4)ccc3=O)c2)nc1 (single isomer, unassigned) [Example 231, 1-(3,4-difluorophenyl)-3-{(1R or S)-1-[3-(5-ethylpyrimidin-2-yl)phenyl]ethyl}pyridazin-4(1H)-one]	< 100
CCCOC(=O)Nc1cccc(Cc2nn(-c3ccc(OC)nc3)ccc2=O)c1 [Example 32, propyl (3-{[1-(6-methoxypyridin-3-yl)-4-oxo-1,4-dihydropyridazin-3-yl]methyl}phenyl)carbamate]	< 100
CNC(=O)Nc1cccc(Cc2nn(-c3cnn(C)c3)ccc2=O)c1 [Example 487, 1-Methyl-3-(3-{[1-(1-methyl-1H-pyrazol-4-yl)-4-oxo-1,4-dihydropyridazin-3-yl]methyl}phenyl)urea]	< 100
